Where “and” joins values, the source holds several entries; their conditions need not be identical. Equal values may be shown once. Read-outs that look alike come from different tables or passages of the source.
Columns and labels:
MRGPRX4 + RAMP3 = biological target: T1, MRGPRX4 + RAMP3 (Homo sapiens, UniProt Q96LA9); test: IP1 accumulation, MRGPRX4 coexpressed with RAMP3; assay type: cell-based; design: key: % IP1; unstimulated mock = 0%, fully stimulated MRGPRX4 = 100%; conditions: Figure 4c-f; agonist 100µM; X4:ramp3 1:2; MRGPRX4 = 100
T1 construct: expressed in transfected cells; host or cells: HEK293T

MRGPRX4 + RAMP2 = biological target: T2, MRGPRX4 + RAMP2 (Homo sapiens, UniProt Q96LA9); test: IP1 accumulation, MRGPRX4 coexpressed with RAMP2; assay type: cell-based; conditions: for activation at 100 µM / activation at 20 µM / activation at 4 µM / activation at 0.8 µM / activation at […] / activation at 0.032 µM: 2 h
T2 construct: expressed in transfected cells; host or cells: HEK293T
Protocol: HEK293T cells were transfected with 1 pg/cell of MRGPRX4 DNA, and the amount of DNA was kept constant at 2 pg/cell with pcDNA3.1(+) empty vector, unless otherwise specified. Twenty four hours after transfection, IP1 assay was performed as previously described ([51]). When applicable, cells were treated with 1 μM YM254890 (YM) or different concentrations of U73122 for 1 h prior to addition of agonist or buffer. After incubation for 2 h, HTRF reagents and IP1 calibration standards were added and incubated for 2 h in the dark at room temperature. Time-resolved fluorescence signals were read on the BioTek Synergy NEO-TRF Hybrid multi-mode reader (BioTek Instruments). All data were carried out in three independent experiments with three technical replicate each.
For RAMP DNA titration assay, HEK293T cells were cotransfected with a constant amount of 1 pg/cell of FLAG-MRGPRX4-GFP10-1D4 to which a serial dilution of 1, 0.75, 0.5, 0.25, or 0 pg/cell of each HA-RAMP-OLLAS was added. For a homogenous transfection of MRGPRX4, a master mix of MRGPRX4 DNA was made prior to addition of the RAMP DNA. […]
Data reduction, standard calibration, and transformation of HTRF data were performed as previously described ([51]). Normalized IP1 values were calculated relative to the unstimulated mock-transfected cells (set to 0%) and fully stimulated MRGPRX4 (alone if applicable) (set to 100%).

T2 sequence (Q96LA9 whole entry): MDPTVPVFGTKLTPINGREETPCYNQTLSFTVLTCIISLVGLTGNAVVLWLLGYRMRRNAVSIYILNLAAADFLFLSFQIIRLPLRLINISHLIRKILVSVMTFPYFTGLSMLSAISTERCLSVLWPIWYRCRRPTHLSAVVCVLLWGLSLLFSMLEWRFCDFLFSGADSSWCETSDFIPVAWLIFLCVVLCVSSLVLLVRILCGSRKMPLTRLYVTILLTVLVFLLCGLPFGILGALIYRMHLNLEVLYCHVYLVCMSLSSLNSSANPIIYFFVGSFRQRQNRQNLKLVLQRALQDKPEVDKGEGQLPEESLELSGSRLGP
T1 sequence (Q96LA9 whole entry): as above

`CC(C)[C@H]1CC[C@H](C(=O)N[C@H](Cc2ccccc2)C(=O)O)CC1` [Nateglinide] was tested, and the “response to agonist, X4:ramp3.I:2” value (MRGPRX4 + RAMP3) was 54.9628 and 57.8528, the activation at 100 µM (MRGPRX4 + RAMP2; log [nateglinide] (M) -4, MRGPRX4+RAMP2 0.75pg 1:0.75, Supplementary Figure 5e, read-out: IP1 accumulation (normalized)) was 67.4% and the activation at 100 µM (MRGPRX4 + RAMP2; log [nateglinide] (M) -4, MRGPRX4+RAMP2 1pg 1:1, Supplementary Figure 5e, 5g, read-out: IP1 accumulation (normalized)) was 56.4%. It also gave an activation at 20 µM (MRGPRX4 + RAMP2; log [nateglinide] (M) -4.69897, MRGPRX4+RAMP2 0.5pg 1:0.5, Supplementary Figure 5e, read-out: IP1 accumulation (normalized)) of 67.3%, an activation at 20 µM (MRGPRX4 + RAMP2; log [nateglinide] (M) -4.69897, MRGPRX4+RAMP2 0.75pg 1:0.75, Supplementary Figure 5e, read-out: IP1 accumulation (normalized)) of 50.8% and an activation at 20 µM (MRGPRX4 + RAMP2; log [nateglinide] (M) -4.69897, MRGPRX4+RAMP2 1pg 1:1, Supplementary Figure 5e, 5g, read-out: IP1 accumulation (normalized)) of 31.2%. For the same compound, the activation at 4 µM (MRGPRX4 + RAMP2; log [nateglinide] (M) -5.39794, MRGPRX4+RAMP2 0.5pg 1:0.5, Supplementary Figure 5e, read-out: IP1 accumulation (normalized)) was 27.4%, the activation at 4 µM (MRGPRX4 + RAMP2; log [nateglinide] (M) -5.39794, MRGPRX4+RAMP2 0.75pg 1:0.75, Supplementary Figure 5e, read-out: IP1 accumulation (normalized)) was 22.7% and the activation at 4 µM (MRGPRX4 + RAMP2; log [nateglinide] (M) -5.39794, MRGPRX4+RAMP2 1pg 1:1, Supplementary Figure 5e, 5g, read-out: IP1 accumulation (normalized)) was 15%. For the same compound, the activation at 0.8 µM (MRGPRX4 + RAMP2; log [nateglinide] (M) -6.09691, MRGPRX4+RAMP2 0.5pg 1:0.5, Supplementary Figure 5e, read-out: IP1 accumulation (normalized)) was 14.1%, the activation at 0.8 µM (MRGPRX4 + RAMP2; log [nateglinide] (M) -6.09691, MRGPRX4+RAMP2 0.75pg 1:0.75, Supplementary Figure 5e, read-out: IP1 accumulation (normalized)) was 9.77% and the activation at 0.8 µM (MRGPRX4 + RAMP2; log [nateglinide] (M) -6.09691, MRGPRX4+RAMP2 1pg 1:1, Supplementary Figure 5e, 5g, read-out: IP1 accumulation (normalized)) was 5.12%. The activation at […] (MRGPRX4 + RAMP2; log [nateglinide] (M) -6.79588, MRGPRX4+RAMP2 0.5pg 1:0.5, Supplementary Figure 5e, read-out: IP1 accumulation (normalized)) was 8.46%, the activation at […] (MRGPRX4 + RAMP2; log [nateglinide] (M) -6.79588, MRGPRX4+RAMP2 0.75pg 1:0.75, Supplementary Figure 5e, read-out: IP1 accumulation (normalized)) was 6.53% and the activation at […] (MRGPRX4 + RAMP2; log [nateglinide] (M) -6.79588, MRGPRX4+RAMP2 1pg 1:1, Supplementary Figure 5e, 5g, read-out: IP1 accumulation (normalized)) was 3.5%. It also gave an activation at 0.032 µM (MRGPRX4 + RAMP2; log [nateglinide] (M) -7.49485, MRGPRX4+RAMP2 0.5pg 1:0.5, Supplementary Figure 5e, read-out: IP1 accumulation (normalized)) of 8.31%, an activation at 0.032 µM (MRGPRX4 + RAMP2; log [nateglinide] (M) -7.49485, MRGPRX4+RAMP2 0.75pg 1:0.75, Supplementary Figure 5e, read-out: IP1 accumulation (normalized)) of 6.16% and an activation at 0.032 µM (MRGPRX4 + RAMP2; log [nateglinide] (M) -7.49485, MRGPRX4+RAMP2 1pg 1:1, Supplementary Figure 5e, 5g, read-out: IP1 accumulation (normalized)) of 3.54%. It also gave an activation at 100 µM (MRGPRX4 + RAMP2; ratio MRGPRX4:RAMP2 1:0.25, log [Nateglinide] (M) -4, Fig S3b, read-out: IP1 accumulation) of 98.8%, an activation at 20 µM (MRGPRX4 + RAMP2; ratio MRGPRX4:RAMP2 1:0.25, log [Nateglinide] (M) -4.69897, Fig S3b, read-out: IP1 accumulation) of 58.9% and an activation at 4 µM (MRGPRX4 + RAMP2; ratio MRGPRX4:RAMP2 1:0.25, log [Nateglinide] (M) -5.39794, Fig S3b, read-out: IP1 accumulation) of 38%. It also gave an activation at 0.8 µM (MRGPRX4 + RAMP2; ratio MRGPRX4:RAMP2 1:0.25, log [Nateglinide] (M) -6.09691, Fig S3b, read-out: IP1 accumulation) of 25.5%, an activation at […] (MRGPRX4 + RAMP2; ratio MRGPRX4:RAMP2 1:0.25, log [Nateglinide] (M) -6.79588, Fig S3b, read-out: IP1 accumulation) of 22.6% and an activation at 0.032 µM (MRGPRX4 + RAMP2; ratio MRGPRX4:RAMP2 1:0.25, log [Nateglinide] (M) -7.49485, Fig S3b, read-out: IP1 accumulation) of 20.5%. It also gave an activation at 100 µM (MRGPRX4 + RAMP2; ratio MRGPRX4:RAMP2 1:0.5, log [Nateglinide] (M) -4, Fig S3b, read-out: IP1 accumulation) of 67.8%, an activation at 20 µM (MRGPRX4 + RAMP2; ratio MRGPRX4:RAMP2 1:0.5, log [Nateglinide] (M) -4.69897, Fig S3b, read-out: IP1 accumulation) of 62.1% and an activation at 4 µM (MRGPRX4 + RAMP2; ratio MRGPRX4:RAMP2 1:0.5, log [Nateglinide] (M) -5.39794, Fig S3b, read-out: IP1 accumulation) of 36.6%. The activation at 0.8 µM (MRGPRX4 + RAMP2; ratio MRGPRX4:RAMP2 1:0.5, log [Nateglinide] (M) -6.09691, Fig S3b, read-out: IP1 accumulation) was 20.3%, the activation at […] (MRGPRX4 + RAMP2; ratio MRGPRX4:RAMP2 1:0.5, log [Nateglinide] (M) -6.79588, Fig S3b, read-out: IP1 accumulation) was 15.7% and the activation at 0.032 µM (MRGPRX4 + RAMP2; ratio MRGPRX4:RAMP2 1:0.5, log [Nateglinide] (M) -7.49485, Fig S3b, read-out: IP1 accumulation) was 15.3%. The activation at 100 µM (MRGPRX4 + RAMP2; ratio MRGPRX4:RAMP2 1:1, log [Nateglinide] (M) -4, Fig S3b, read-out: IP1 accumulation) was 40.5%, the activation at 20 µM (MRGPRX4 + RAMP2; ratio MRGPRX4:RAMP2 1:1, log [Nateglinide] (M) -4.69897, Fig S3b, read-out: IP1 accumulation) was 43.2% and the activation at 4 µM (MRGPRX4 + RAMP2; ratio MRGPRX4:RAMP2 1:1, log [Nateglinide] (M) -5.39794, Fig S3b, read-out: IP1 accumulation) was 21.9%. For the same compound, the activation at 0.8 µM (MRGPRX4 + RAMP2; ratio MRGPRX4:RAMP2 1:1, log [Nateglinide] (M) -6.09691, Fig S3b, read-out: IP1 accumulation) was 14.1%, the activation at […] (MRGPRX4 + RAMP2; ratio MRGPRX4:RAMP2 1:1, log [Nateglinide] (M) -6.79588, Fig S3b, read-out: IP1 accumulation) was 11.3% and the activation at 0.032 µM (MRGPRX4 + RAMP2; ratio MRGPRX4:RAMP2 1:1, log [Nateglinide] (M) -7.49485, Fig S3b, read-out: IP1 accumulation) was 11.1%. The activation at 100 µM (MRGPRX4 + RAMP2; ratio MRGPRX4:RAMP2 1:2, log [Nateglinide] (M) -4, Fig S3b, read-out: IP1 accumulation) was 28%, the activation at 20 µM (MRGPRX4 + RAMP2; ratio MRGPRX4:RAMP2 1:2, log [Nateglinide] (M) -4.69897, Fig S3b, read-out: IP1 accumulation) was 15.2% and the activation at 4 µM (MRGPRX4 + RAMP2; ratio MRGPRX4:RAMP2 1:2, log [Nateglinide] (M) -5.39794, Fig S3b, read-out: IP1 accumulation) was 6.45%. For the same compound, the activation at 0.8 µM (MRGPRX4 + RAMP2; ratio MRGPRX4:RAMP2 1:2, log [Nateglinide] (M) -6.09691, Fig S3b, read-out: IP1 accumulation) was 4.89%, the activation at […] (MRGPRX4 + RAMP2; ratio MRGPRX4:RAMP2 1:2, log [Nateglinide] (M) -6.79588, Fig S3b, read-out: IP1 accumulation) was 3.86% and the activation at 0.032 µM (MRGPRX4 + RAMP2; ratio MRGPRX4:RAMP2 1:2, log [Nateglinide] (M) -7.49485, Fig S3b, read-out: IP1 accumulation) was 3.91%. For the same compound, the Emax (MRGPRX4 + RAMP2; Figure 4a bottom, DNA ratio MRGPRX4:RAMP2 1:1, MRGPRX4 alone = 100, read-out: efficacy) was 35.1%.

Source: PMC10165273, “Itch receptor MRGPRX4 interacts with the receptor activity–modifying proteins” (The Journal of Biological Chemistry, 2023)
